Experimental data taken from patent publication US20010007152A1, “RECOMBINANT CONSTRUCTS ENCODING T CELL RECEPTORS SPECIFIC FOR HUMAN HLA-RESTRICTED TUMOR ANTIGENS” (priority 1996, published 2001).

Experiments:
HLA A2.1 = target: T1, HLA A2.1 (UniProt P01901+P04439, D140Y/D185E/D98H/E176V/G131W/I119V/I121R/I166T/N151K/N90K/Q86G/Q94H/R138H/R169H); test: Competition assay: inhibition of influenza matrix peptide M1 (58-66) binding to A2.1, read as inhibition of lysis by an M1-specific CTL clone; design: species or system human; conditions: test peptide 10 μg vs influenza matrix peptide 0.1 μg; T2-A2.1/K^b target cells
T1 construct: expressed in transfected cells; host or cells: T2-A2.1/K^b cells
Procedure: Briefly, each test peptide (10 μg) was incubated with radiolabeled target cells (T2-A2.1/K^b, 10^6 target cells labeled with […] ^51Cr at 37° for 1.5 hours) in the presence of an influenza virus matrix protein (0.1 μg). The ability of these peptides to inhibit the binding of the influenza matrix protein peptide MI (58-66) to A2.1 was measured by inhibition of lysis by an M1 (58-66) specific, A2.1 restricted CTL clone.

MDA.MB231 = test: Lysis of tumor cells by peptide-specific CTL; type: cell-based, human; conditions: 6 hours
MCF-7 = test: Lysis of tumor cells by peptide-specific CTL; type: cell-based, human; conditions: 6 hours
BT549 = test: Lysis of tumor cells by peptide-specific CTL; type: cell-based, human; conditions: 6 hours
SAOS.175 = test: Lysis of tumor cells by peptide-specific CTL; type: cell-based, human; conditions: 6 hours
U2-OS = test: Lysis of tumor cells by peptide-specific CTL; type: cell-based, human; conditions: 6 hours
SW480 = test: Lysis of tumor cells by peptide-specific CTL; type: cell-based, human; conditions: 6 hours
OVCAR-5 = test: Lysis of tumor cells by peptide-specific CTL; type: cell-based, human; conditions: 6 hours
T98G = test: Lysis of tumor cells by peptide-specific CTL; type: cell-based, human; conditions: 6 hours
MALME-3M = test: Lysis of tumor cells by peptide-specific CTL; type: cell-based, human; conditions: 6 hours
SKMEL-5 = test: Lysis of tumor cells by peptide-specific CTL; type: cell-based, human; conditions: 6 hours
NCl.H1355 = test: Lysis of tumor cells by peptide-specific CTL; type: cell-based, human; conditions: 6 hours
Hep-G2 = test: Lysis of tumor cells by peptide-specific CTL; type: cell-based, human; conditions: 6 hours
CASKI = test: Lysis of tumor cells by peptide-specific CTL; type: cell-based, human; conditions: 6 hours
U87G = test: Lysis of tumor cells by peptide-specific CTL; type: cell-based, human; conditions: 6 hours
ST486 = test: Lysis of tumor cells by peptide-specific CTL; type: cell-based, human; conditions: 6 hours
LG-2 = test: Lysis of tumor cells by peptide-specific CTL; type: cell-based, human; conditions: 6 hours
SV80 = test: Lysis of tumor cells by peptide-specific CTL; type: cell-based, human; conditions: 6 hours
JY = test: Lysis of tumor cells by peptide-specific CTL; type: cell-based, human; conditions: 6 hours
MDA.MB435 = test: Lysis of tumor cells by peptide-specific CTL; type: cell-based, human; conditions: 6 hours
[1] = tumor preincubated 24 hours with 20 ng/ml γ-IFN and 3 ng/ml TNF-α

Q: How did the “% INHIBITION” value (HLA A2.1) turn out when “DIDETEYHA [H18, Her-2/neu peptide 871-879]” was run?
A: 37%

Q: How did the “% INHIBITION” value (HLA A2.1) turn out when “DLLEKGERL [H19, Her-2/neu peptide 933-941]” was run?
A: 36%

Q: Which “% INHIBITION” value (HLA A2.1) does the source give for “DLVDAEEYL [H23, Her-2/neu peptide 1016-1024]” here?
A: 35%

Q: With “ELVSEFSRM [H20, Her-2/neu peptide 971-979]” as the sequence, how does the “% INHIBITION” value (HLA A2.1) read?
A: 5%

Q: With “ELVSEFSRMA [H21, Her-2/neu peptide 971-980]” as the sequence, how does the “% INHIBITION” value (HLA A2.1) read?
A: 25%

Q: With HLYQGOQW [H12] as the sequence, how does the “% INHIBITION” value (HLA A2.1) read?
A: 15%

Q: Which “% INHIBITION” value (HLA A2.1) does the source give for “KIPVAIKVL [H14, Her-2/neu peptide 747-755]” here?
A: 35%

Q: Which results are given for “KLVGKLNWA [HIV-9K, HIV POL peptide, known to be immunogenic, used as a control, reference compound]”?
A: Killing of tumor (lysis) (MDA.MB231; MDA.MB231, breast, A2 +, Her-2 +, no cytokine preincubation): 3%; Killing of tumor (lysis) + CYT (MDA.MB231; MDA.MB231, tumor preincubated 24 hours with 20 ng/ml γ-IFN and 3 ng/ml TNF-α): 14; Killing of tumor (lysis) (MCF-7; MCF-7, breast, A2 +, Her-2 +, no cytokine preincubation): 3%; Killing of tumor (lysis) + CYT (MCF-7; MCF-7, tumor preincubated 24 hours with 20 ng/ml γ-IFN and 3 ng/ml TNF-α): 7; Killing of tumor (lysis) (BT549; BT549, breast, A2 +, Her-2 +, no cytokine preincubation): 2%; Killing of tumor (lysis) + CYT (BT549; BT549, tumor preincubated 24 hours with 20 ng/ml γ-IFN and 3 ng/ml TNF-α): 15; Killing of tumor (lysis) (SAOS.175; SAOS.175, osteosarcoma, A2 +, Her-2 +, no cytokine preincubation): 18%; Killing of tumor (lysis) + CYT (SAOS.175; SAOS.175, tumor preincubated 24 hours with 20 ng/ml γ-IFN and 3 ng/ml TNF-α): 11; Killing of tumor (lysis) + CYT (U2-OS; [1]): 24; Killing of tumor (lysis) (U2-OS; osteosarcoma, A2 +, Her-2 +, no cytokine preincubation): 18%; Killing of tumor (lysis) (SW480; SW480, colon, A2 +, Her-2 +, no cytokine preincubation): 1%; Killing of tumor (lysis) + CYT (SW480; SW480, tumor preincubated 24 hours with 20 ng/ml γ-IFN and 3 ng/ml TNF-α): 4; Killing of tumor (lysis) (OVCAR-5; OVCAR-5, ovarian, A2 +, Her-2 +, no cytokine preincubation): 10%; Killing of tumor (lysis) + CYT (OVCAR-5; OVCAR-5, tumor preincubated 24 hours with 20 ng/ml γ-IFN and 3 ng/ml TNF-α): 12; Killing of tumor (lysis) + CYT (T98G; [1]): 13; Killing of tumor (lysis) (T98G; glioblastoma, A2 +, Her-2 +, no cytokine preincubation): 9%; Killing of tumor (lysis) + CYT (MALME-3M; [1]): 1; Killing of tumor (lysis) (MALME-3M; melanoma, A2 +, Her-2 +, no cytokine preincubation): 2%; Killing of tumor (lysis) (SKMEL-5; SKMEL-5, melanoma, A2 +, Her-2 +, no cytokine preincubation): 5%; Killing of tumor (lysis) + CYT (SKMEL-5; SKMEL-5, tumor preincubated 24 hours with 20 ng/ml γ-IFN and 3 ng/ml TNF-α): 4; Killing of tumor (lysis) (NCl.H1355; NCl.H1355, lung, A2 +, Her-2 +, no cytokine preincubation): 7%; Killing of tumor (lysis) + CYT (NCl.H1355; NCl.H1355, tumor preincubated 24 hours with 20 ng/ml γ-IFN and 3 ng/ml TNF-α): 25; Killing of tumor (lysis) (Hep-G2; Hep-G2, hepatoma, A2 +, Her-2 +, no cytokine preincubation): 1%; Killing of tumor (lysis) + CYT (Hep-G2; Hep-G2, tumor preincubated 24 hours with 20 ng/ml γ-IFN and 3 ng/ml TNF-α): 8; Killing of tumor (lysis) + CYT (CASKI; [1]): 11; Killing of tumor (lysis) (CASKI; cervix, A2 +, Her-2 +, no cytokine preincubation): 8%; Killing of tumor (lysis) + CYT (U87G; [1]): 1; Killing of tumor (lysis) (U87G; glioblastoma, A2 +, Her-2 −, no cytokine preincubation): 5%; Killing of tumor (lysis) (ST486; ST486, lymphoma, A2 +, Her-2 −, no cytokine preincubation): 1%; Killing of tumor (lysis) + CYT (ST486; ST486, tumor preincubated 24 hours with 20 ng/ml γ-IFN and 3 ng/ml TNF-α): 1; Killing of tumor (lysis) (LG-2; LG-2, EBV-trans., A2 +, Her-2 −, no cytokine preincubation): 1%; Killing of tumor (lysis) + CYT (LG-2; LG-2, tumor preincubated 24 hours with 20 ng/ml γ-IFN and 3 ng/ml TNF-α): 1; Killing of tumor (lysis) (SV80; SV80, fibroblast, A2 +, Her-2 −, no cytokine preincubation): 2%; Killing of tumor (lysis) + CYT (SV80; SV80, tumor preincubated 24 hours with 20 ng/ml γ-IFN and 3 ng/ml TNF-α): 2; Killing of tumor (lysis) + CYT (JY; [1]): 1; Killing of tumor (lysis) (JY; lymphoma, A2 +, Her-2 −, no cytokine preincubation): 2%; Killing of tumor (lysis) (MDA.MB435; MDA.MB435, breast, A2 −, Her-2 +, no cytokine preincubation): 4%; Killing of tumor (lysis) + CYT (MDA.MB435; MDA.MB435, tumor preincubated 24 hours with 20 ng/ml γ-IFN and 3 ng/ml TNF-α): 3
